Where a SMILES comes first, the peptide text is derived from it. [ ]: non-standard residue; d: D form. ξ: configuration not given here. Ile(3ξ) = CCC(C)[C@H](N)C(=O)O

The experiment concerns the target T1, Pituitary adenylate cyclase-activating polypeptide (Rattus norvegicus, UniProt P13589).
T1 sequence (P13589 whole entry): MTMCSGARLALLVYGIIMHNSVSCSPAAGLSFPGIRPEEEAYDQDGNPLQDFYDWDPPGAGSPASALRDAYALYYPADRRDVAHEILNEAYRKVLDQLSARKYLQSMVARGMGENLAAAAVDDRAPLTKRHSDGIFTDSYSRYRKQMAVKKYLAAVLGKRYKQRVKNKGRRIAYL
In general, Ki refers to a measure of affinity in units of concentration, obtained from inhibition or displacement. Low readings indicate tighter binding, high ones weaker binding. Take `CCC(C)[C@H](NC(=O)CN)C(=O)N[C@@H](Cc1ccccc1)C(=O)N[C@H](C(=O)N[C@@H](CC(=O)O)C(=O)N[C@@H](CO)C(=O)N[C@@H](Cc1ccc(O)cc1)C(=O)N[C@@H](CO)C(=O)N[C@@H](CCCN=C(N)N)C(=O)N[C@@H](Cc1ccc(O)cc1)C(=O)N[C@@H](CCCN=C(N)N)C(=O)N[C@@H](CCCCN)C(=O)N[C@@H](CCC(N)=O)C(=O)N[C@@H](CCSC)C(=O)N[C@@H](C)C(=O)N[C@H](C(=O)N[C@@H](CCCCN)C(=O)N[C@@H](CCCCN)C(=O)N[C@@H](Cc1ccc(O)cc1)C(=O)N[C@@H](CC(C)C)C(=O)N[C@@H](C)C(=O)N[C@@H](C)C(=O)N[C@H](C(=O)N[C@@H](CC(C)C)C(=O)NCC(=O)N[C@@H](CCCCN)C(=O)N[C@@H](CCCN=C(N)N)C(=O)N[C@@H](Cc1ccc(O)cc1)C(=O)N[C@@H](CCCCN)C(=O)N[C@@H](CCC(N)=O)C(=O)N[C@@H](CCCN=C(N)N)C(=O)N[C@H](C(=O)N[C@@H](CCCCN)C(=O)N[C@@H](CC(N)=O)C(=O)N[C@@H](CCCCN)C(N)=O)C(C)C)C(C)C)C(C)C)[C@@H](C)O` (some centres not stated) [PACAP(4-38)] (H-G[Ile(3ξ)]FTDSYSRYRKQMAVKKYLAAVLGKRYKQRVKNK-NH2): the Ki worked out at 20 nM.
Regarding `CCC(C)[C@H](N)C(=O)N[C@@H](Cc1ccccc1)C(=O)N[C@H](C(=O)N[C@@H](CC(=O)O)C(=O)N[C@@H](CO)C(=O)N[C@@H](Cc1ccc(O)cc1)C(=O)N[C@@H](CO)C(=O)N[C@@H](CCCN=C(N)N)C(=O)N[C@@H](Cc1ccc(O)cc1)C(=O)N[C@@H](CCCN=C(N)N)C(=O)N[C@@H](CCCCN)C(=O)N[C@@H](CCC(N)=O)C(=O)N[C@@H](CCSC)C(=O)N[C@@H](C)C(=O)N[C@H](C(=O)N[C@@H](CCCCN)C(=O)N[C@@H](CCCCN)C(=O)N[C@@H](Cc1ccc(O)cc1)C(=O)N[C@@H](CC(C)C)C(=O)N[C@@H](C)C(=O)N[C@@H](C)C(=O)N[C@H](C(=O)N[C@@H](CC(C)C)C(N)=O)C(C)C)C(C)C)[C@@H](C)O` (some centres not stated) [PACAP(5-27)] (H-[Ile(3ξ)]FTDSYSRYRKQMAVKKYLAAVL-NH2), the inhibitory constant (Ki) came out at 1000 nM. This Ki is about 50-fold higher than that of the compound before.
The compound `CCC(C)[C@H](N)C(=O)N[C@@H](Cc1ccccc1)C(=O)N[C@H](C(=O)N[C@@H](CC(=O)O)C(=O)N[C@@H](CO)C(=O)N[C@@H](Cc1ccc(O)cc1)C(=O)N[C@@H](CO)C(=O)N[C@@H](CCCN=C(N)N)C(=O)N[C@@H](Cc1ccc(O)cc1)C(=O)N[C@@H](CCCN=C(N)N)C(=O)N[C@@H](CCCCN)C(=O)N[C@@H](CCC(N)=O)C(=O)N[C@@H](CCSC)C(=O)N[C@@H](C)C(=O)N[C@H](C(=O)N[C@@H](CCCCN)C(=O)N[C@@H](CCCCN)C(=O)N[C@@H](Cc1ccc(O)cc1)C(=O)N[C@@H](CC(C)C)C(=O)N[C@@H](C)C(=O)N[C@@H](C)C(=O)N[C@H](C(=O)N[C@@H](CC(C)C)C(=O)NCC(=O)N[C@@H](CCCCN)C(=O)N[C@@H](CCCN=C(N)N)C(=O)N[C@@H](Cc1ccc(O)cc1)C(=O)N[C@@H](CCCCN)C(=O)N[C@@H](CCC(N)=O)C(=O)N[C@@H](CCCN=C(N)N)C(=O)N[C@H](C(=O)N[C@@H](CCCCN)C(=O)N[C@@H](CC(N)=O)C(=O)N[C@@H](CCCCN)C(N)=O)C(C)C)C(C)C)C(C)C)[C@@H](C)O` (some centres not stated) [PACAP(5-38)] (H-[Ile(3ξ)]FTDSYSRYRKQMAVKKYLAAVLGKRYKQRVKNK-NH2) returned an inhibitory constant (Ki) of 9 nM.
Take `CNC(=O)[C@H](Cc1ccc(O)cc1)NC(=O)[C@H](CCCN=C(N)N)NC(=O)[C@H](CCCCN)NC(=O)CNC(=O)[C@H](CC(C)C)NC(=O)[C@@H](NC(=O)[C@H](C)NC(=O)[C@H](C)NC(=O)[C@H](CC(C)C)NC(=O)[C@H](Cc1ccc(O)cc1)NC(=O)[C@H](CCCCN)NC(=O)[C@H](CCCCN)NC(=O)[C@@H](NC(=O)[C@H](C)NC(=O)[C@H](CCSC)NC(=O)[C@H](CCC(N)=O)NC(=O)[C@H](CCCCN)NC(=O)[C@H](CCCN=C(N)N)NC(=O)[C@H](Cc1ccc(O)cc1)NC(=O)[C@H](CCCN=C(N)N)NC(=O)[C@H](CO)NC(=O)[C@H](Cc1ccc(O)cc1)NC(=O)[C@H](CO)NC(=O)[C@H](CC(=O)O)NC(=O)[C@@H](NC(=O)[C@@H](N)Cc1ccccc1)[C@@H](C)O)C(C)C)C(C)C` [PACAP(6-31)] (H-FTDSYSRYRKQMAVKKYLAAVLGKRY-NHMe): the affinity, expressed as Ki, was 3 nM.
For the compound `CC[C@H](C)[C@H](NC(=O)CNC(=O)[C@H](CC(=O)O)NC(=O)[C@H](CO)NC(=O)[C@@H](N)Cc1cnc[nH]1)C(=O)N[C@@H](Cc1ccccc1)C(=O)N[C@H](C(=O)N[C@@H](CC(=O)O)C(=O)N[C@@H](CO)C(=O)N[C@@H](Cc1ccc(O)cc1)C(=O)N[C@@H](CO)C(=O)N[C@@H](CCCNC(=N)N)C(=O)N[C@@H](Cc1ccc(O)cc1)C(=O)N[C@@H](CCCNC(=N)N)C(=O)N[C@@H](CCCCN)C(=O)N[C@@H](CCC(N)=O)C(=O)N[C@@H](CCSC)C(=O)N[C@@H](C)C(=O)N[C@H](C(=O)N[C@@H](CCCCN)C(=O)N[C@@H](CCCCN)C(=O)N[C@@H](Cc1ccc(O)cc1)C(=O)N[C@@H](CC(C)C)C(=O)N[C@@H](C)C(=O)N[C@@H](C)C(=O)N[C@H](C(=O)N[C@@H](CC(C)C)C(=O)NCC(=O)N[C@@H](CCCCN)C(=O)N[C@@H](CCCNC(=N)N)C(=O)N[C@@H](Cc1ccc(O)cc1)C(=O)N[C@@H](CCCCN)C(=O)N[C@@H](CCC(N)=O)C(=O)N[C@@H](CCCNC(=N)N)C(=O)N[C@H](C(=O)N[C@@H](CCCCN)C(=O)N[C@@H](CC(N)=O)C(=O)N[C@@H](CCCCN)C(N)=O)C(C)C)C(C)C)C(C)C)[C@@H](C)O` [PACAP], the Ki is 0.3 nM.
As for `CC[C@H](C)[C@H](NC(=O)CNC(=O)[C@H](CC(=O)O)NC(=O)[C@H](CO)NC(=O)[C@H](Cc1cnc[nH]1)NC(C)=O)C(=O)N[C@@H](Cc1ccccc1)C(=O)N[C@H](C(=O)N[C@@H](CC(=O)O)C(=O)N[C@@H](CO)C(=O)N[C@@H](Cc1ccc(O)cc1)C(=O)N[C@@H](CO)C(=O)N[C@@H](CCCNC(=N)N)C(=O)N[C@@H](Cc1ccc(O)cc1)C(=O)N[C@@H](CCCNC(=N)N)C(=O)N[C@@H](CCCCN)C(=O)N[C@@H](CCC(N)=O)C(=O)N[C@@H](CCSC)C(=O)N[C@@H](C)C(=O)N[C@H](C(=O)N[C@@H](CCCCN)C(=O)N[C@@H](CCCCN)C(=O)N[C@@H](Cc1ccc(O)cc1)C(=O)N[C@@H](CC(C)C)C(=O)N[C@@H](C)C(=O)N[C@@H](C)C(=O)N[C@H](C(=O)N[C@@H](CC(C)C)C(N)=O)C(C)C)C(C)C)[C@@H](C)O` [[AcHis1]PACAP(1-27)], the inhibition constant (Ki) came out at 1 nM.
Compound `CC[C@H](C)[C@H](NC(=O)CNC(=O)[C@H](CC(=O)O)NC(=O)[C@H](C)NC(=O)[C@@H](N)Cc1cnc[nH]1)C(=O)N[C@@H](Cc1ccccc1)C(=O)N[C@H](C(=O)N[C@@H](CC(=O)O)C(=O)N[C@@H](CO)C(=O)N[C@@H](Cc1ccc(O)cc1)C(=O)N[C@@H](CO)C(=O)N[C@@H](CCCNC(=N)N)C(=O)N[C@@H](Cc1ccc(O)cc1)C(=O)N[C@@H](CCCNC(=N)N)C(=O)N[C@@H](CCCCN)C(=O)N[C@@H](CCC(N)=O)C(=O)N[C@@H](CCSC)C(=O)N[C@@H](C)C(=O)N[C@H](C(=O)N[C@@H](CCCCN)C(=O)N[C@@H](CCCCN)C(=O)N[C@@H](Cc1ccc(O)cc1)C(=O)N[C@@H](CC(C)C)C(=O)N[C@@H](C)C(=O)N[C@@H](C)C(=O)N[C@H](C(=O)N[C@@H](CC(C)C)C(N)=O)C(C)C)C(C)C)[C@@H](C)O` [[Ala2]PACAP(1-27)] gave a Ki of 0.3 nM.

The values are drawn from BindingDB's records for doi:10.1016/s0028-3908(05)80009-7 (Universit&Eacute, 1994).
